In patent US20240150377A1, “MODULATORS OF CYSTIC FIBROSIS TRANSMEMBRANE CONDUCTANCE REGULATOR” (VERTEX PHARMACEUTICALS INCORPORATED, priority 2020, published 2024):
Where two headings read alike, the source gives them in different places.

Target: CFTR (Homo sapiens, UniProt P13569)
Assay: Membrane potential dye, Enteroid Assay B
Type: cell-based
Details: for EC50: read-out: Ent. B EC50; for Ent. B Max Activity: chloride transport as % of triple combination control (Enteroid Assay B)
Method: Base medium (ADF+++) consisted of Advanced DMEM/Ham's F12, 2 mM Glutamax, 10 mM HEPES, […] penicillin/streptomycin.
Intestinal enteroid maintenance medium (IEMM) consisted of ADF+++, 1× B27 supplement, 1× N2 supplement, 1.25 mM N-acetyl cysteine, 10 mM Nicotinamide, 50 ng/mL hEGF, 10 nM Gastrin, 1 μg/mL hR-spondin-1, 100 ng/mL hNoggin, TGF-b type 1 inhibitor A-83-01, 100 μg/mL Primocin, 10 μM P38 MAPK inhibitor SB202190.
Bath 1 Buffer consisted of 1 mM MgCl2, 160 mM NaCl, 4.5 mM KCl, 10 mM HEPES, 10 mM Glucose, 2 mM CaCl2).
Chloride Free Buffer consisted of 1 mM Magnesium Gluconate, 2 mM Calcium Gluconate, 4.5 mM Potassium Gluconate, 160 mM Sodium Gluconate, 10 mM HEPES, 10 mM Glucose.
BathI Dye Solution consisted of Bath 1 Buffer, 0.04% Pluronic F127, 20 μM Methyl Oxonol, 30 μM CaCCinh-A01, 30 μM Chicago Sky Blue.
Chloride Free Dye Solution consisted of Chloride Free Buffer, 0.04% Pluronic F127, 20 μM Methyl Oxonol, 30 μM CaCCinh-A01, 30 μM Chicago Sky Blue.
Chloride Free Dye Stimulation Solution consisted of Chloride Free Dye Solution, 10 μM forskolin, 100 μM IBMX, and 300 nM Compound III.
Human intestinal epithelial enteroid cells were obtained from the Hubrecht Institute for Developmental Biology and Stem Cell Research, Utrecht, The Netherlands and expanded in T-Flasks as previously described (Dekkers J F, Wiegerinck C L, de Jonge H R, Bronsveld I, Janssens H M, de Winter-de Groot K M, Brandsma A M, de Jong N W M, Bijvelds M J C, Scholte B J, Nieuwenhuis E E S, van den Brink S, Clevers H, van der Ent C K, Middendorp S and M Beekman J M. A functional CFTR assay using primary cystic fibrosis intestinal organoids. Nat Med. 2013 July;19(7):939-45.).
3. Enteroid Cell Harvesting and Seeding
Cells were recovered in cell recovery solution, collected by centrifugation at 650 rpm for 5 min at 4° C., resuspended in TrypLE and incubated for 5 min at 37° C. Cells were then collected by centrifugation at 650 rpm for 5 min at 4° C. and resuspended in IEMM containing 10 μM ROCK inhibitor (RI). The cell suspension was passed through a 40 μm cell strainer and resuspended at 1×10^6 cells/mL in IEMM containing 10 μM RI. Cells were seeded at 5000 cells/well into multi-well plates and incubated for overnight at 37° C., 95% humidity and 5% CO2 prior to assay.
5. Membrane Potential Dye, Enteroid Assay B
Enteroid cells were incubated with test compound in IEMM for 18-24 hours at 37° C., 95% humidity and 5% CO2. […] Briefly, cells were washed 5 times in Bath 1 Buffer. Bath 1 Dye Solution was added and the cells were incubated for 25 min at room temperature. Following dye incubation, cells were washed 3 times in Chloride Free Dye Solution. Chloride transport was initiated by addition of Chloride Free Dye Stimulation Solution and the fluorescence signal was read for 15 min. […] Chloride transport was then expressed as a percentage of the chloride transport following treatment with 1 μM (14S)-8-[3-(2-{Dispiro[2.0.2.1]heptan-7-yl}ethoxy)-1H-pyrazol-1-yl]-12,12-dimethyl-2λ^6-thia-3,9,11,18,23-pentaazatetracyclo[17.3.1.111,14.05,10]tetracosa-1(22),5,7,9,19(23),20-hexaene-2,2,4-trione, 3 μM (R)-1-(2,2-difluorobenzo[d][1,3]dioxol-5-yl)-N-(1-(2,3-dihydroxypropyl)-6-fluoro-2-(1-hydroxy-2-methylpropan-2-yl)-1H-indol-5-yl)cyclopropanecarboxamide and 300 nM acute N-[2,4-bis(1,1-dimethylethyl)-5-hydroxyphenyl]-1,4-dihydro-4-oxoquinoline-3-carboxamide triple combination control (% Activity).

[1] = Table 8, human enteroid cells, 18-24 hours, acute 10 μM forskolin and 300 nM ivacaftor
[2] = Table 7, human enteroid cells, 18-24 hours, acute 10 μM forskolin and 300 nM ivacaftor

Sequence of CFTR (P13569 with tags, fused parts or gaps DEL508-508): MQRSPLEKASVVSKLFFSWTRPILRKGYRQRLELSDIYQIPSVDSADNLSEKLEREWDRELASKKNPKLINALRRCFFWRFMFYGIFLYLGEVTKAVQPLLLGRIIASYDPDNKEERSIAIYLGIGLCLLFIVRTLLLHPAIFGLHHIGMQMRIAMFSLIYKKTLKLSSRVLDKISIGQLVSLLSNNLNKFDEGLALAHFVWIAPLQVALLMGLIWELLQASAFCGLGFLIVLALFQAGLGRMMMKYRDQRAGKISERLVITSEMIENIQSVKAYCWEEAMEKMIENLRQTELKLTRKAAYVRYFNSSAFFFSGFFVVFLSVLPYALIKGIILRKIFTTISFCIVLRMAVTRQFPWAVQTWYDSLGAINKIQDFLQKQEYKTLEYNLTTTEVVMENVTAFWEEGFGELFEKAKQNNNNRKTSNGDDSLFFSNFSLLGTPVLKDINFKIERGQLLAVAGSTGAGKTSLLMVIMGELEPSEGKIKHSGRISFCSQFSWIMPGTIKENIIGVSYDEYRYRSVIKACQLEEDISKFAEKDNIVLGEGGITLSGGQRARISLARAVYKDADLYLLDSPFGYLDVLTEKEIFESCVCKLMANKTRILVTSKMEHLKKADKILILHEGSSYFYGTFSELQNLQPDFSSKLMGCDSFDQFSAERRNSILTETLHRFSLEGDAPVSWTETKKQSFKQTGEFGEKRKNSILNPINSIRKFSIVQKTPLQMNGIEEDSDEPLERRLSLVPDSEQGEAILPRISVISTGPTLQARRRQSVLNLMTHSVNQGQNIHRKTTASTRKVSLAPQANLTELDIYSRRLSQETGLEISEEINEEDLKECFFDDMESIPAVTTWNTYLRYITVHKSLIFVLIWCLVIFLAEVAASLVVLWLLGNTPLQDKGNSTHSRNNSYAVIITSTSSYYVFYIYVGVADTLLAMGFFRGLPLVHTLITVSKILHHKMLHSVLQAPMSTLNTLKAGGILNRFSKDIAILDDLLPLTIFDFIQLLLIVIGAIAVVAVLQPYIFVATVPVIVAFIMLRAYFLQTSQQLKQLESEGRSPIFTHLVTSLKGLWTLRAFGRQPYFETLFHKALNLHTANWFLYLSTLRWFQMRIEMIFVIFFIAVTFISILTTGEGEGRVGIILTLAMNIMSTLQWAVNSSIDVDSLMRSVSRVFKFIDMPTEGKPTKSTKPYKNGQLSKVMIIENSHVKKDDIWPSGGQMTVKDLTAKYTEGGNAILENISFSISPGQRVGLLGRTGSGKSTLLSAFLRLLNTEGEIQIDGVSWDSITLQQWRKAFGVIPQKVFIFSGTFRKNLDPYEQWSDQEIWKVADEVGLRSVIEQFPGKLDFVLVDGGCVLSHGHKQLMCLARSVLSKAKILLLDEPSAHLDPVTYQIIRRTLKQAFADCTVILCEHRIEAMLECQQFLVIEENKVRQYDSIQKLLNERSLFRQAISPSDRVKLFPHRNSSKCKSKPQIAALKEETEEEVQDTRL

Ent. B Max Activity (Table 8)	EC50 [1]	SMILES	further results
+++ (+++ is >60%)	< 1000 nM	Cc1cccc(C)c1-c1cc2nc(n1)NS(=O)(=O)c1cc(n(C)n1)C(=O)N(Cc1ccc(C(C)(C)O)cc1)[C@H](CC(C)(C)C)CO2 [Compound 923]	–
+ (+ is <30%)	–	Cc1cccc(C)c1-c1cc2nc(n1)NS(=O)(=O)c1cccc(c1)C(=O)N(Cc1cnc(O)nc1)[C@H](CC(C)(C)C)CO2 [Compound 1096]	–
++ (++ is 30-60%)	< 1000 nM	Cc1cccc(C)c1-c1cc2nc(n1)NS(=O)(=O)c1cc(nn1C)C(=O)N(Cc1ccc(C(C)(C)O)cc1)[C@H](CC(C)(C)C)CO2 [Compound 927]	–
+++ (+++ is >60%)	< 1000 nM	Cc1cccc(C)c1-c1cc2nc(n1)NS(=O)(=O)c1cc(n(C)n1)C(=O)N(Cc1cnccn1)[C@H](CC(C)(C)C)CO2 [Compound 921]	–
+++ (+++ is >60%)	< 1000 nM	Cc1cccc(C)c1-c1cc2nc(n1)NS(=O)(=O)c1cccc(c1)C(=O)N(CC1CC(C(C)(C)O)C1)[C@H](CC(C)(C)C)CO2 (stereo partly shown) [Compound 1020]	–
+++ (+++ is >60%)	< 1000 nM	Cc1cccc(C)c1-c1cc2nc(n1)NS(=O)(=O)c1cc(n(C)n1)C(=O)N(Cc1ncccn1)[C@H](CC(C)(C)C)CO2 [Compound 929]	–
++ (++ is 30-60%)	3000 to 30000 nM	Cc1cccc(C)c1-c1cc2nc(n1)NS(=O)(=O)c1cc(n(C)n1)C(=O)N(Cc1ccccc1)[C@H](CC(C)(C)C)CO2 [Compound 926]	–
+++ (+++ is >60%)	< 1000 nM	Cc1cccc(C)c1-c1cc2nc(n1)NS(=O)(=O)c1cccc(c1)C(=O)N(Cc1ccc(C(C)(C)O)cn1)[C@H](CC(C)(C)C)CO2 [Compound 1082]	–
+++ (+++ is >60%)	< 1000 nM	Cc1cccc(C)c1-c1cc2nc(n1)NS(=O)(=O)c1cccc(c1)C(=O)N(Cc1ccncn1)[C@H](CC(C)(C)C)CO2 [Compound 1098]	–
+++ (+++ is >60%)	< 1000 nM	Cc1cccc(C)c1-c1cc2nc(n1)NS(=O)(=O)c1cccc(n1)C(=O)N(Cc1ccc(C(C)(C)O)cc1)[C@H](CC(C)(C)C)CO2 [Compound 1092]	–

Second part, the molecule before the results:

SMILES	Ent. B Max Activity (Table 8)	EC50 [1]	further results
Cc1cccc(C)c1-c1cc2nc(n1)NS(=O)(=O)c1cccc(c1)C(=O)N(Cc1ncc(F)cn1)[C@H](CC(C)(C)C)CO2 [Compound 804]	–	–	Ent. B Max Activity (%) (Table 9): +++ (+++ is >600%); EC50 (Table 9): < 1000 nM
Cc1cccc(C)c1-c1cc2nc(n1)NS(=O)(=O)c1cccc(c1)C(=O)N(Cc1ccc(C#CC(C)(C)C#N)cc1)[C@H](CC(C)(C)C)CO2 [Compound 790]	–	–	Ent. B Max Activity (%) (Table 9): +++ (+++ is >600%); EC50 (Table 9): < 1000 nM
COC(=O)Nc1cccc(CN2C(=O)c3cccc(c3)S(=O)(=O)Nc3nc(cc(-c4c(C)cccc4C)n3)OC[C@H]2CC(C)(C)C)c1 [Compound 506]	+++ (+++ is >60%)	< 1000 nM	–
Cc1cccc(C)c1-c1cc2nc(n1)NS(=O)(=O)c1cccc(c1)C(=O)N(Cc1ncc(Br)cn1)[C@H](CC(C)(C)C)CO2 [Compound 807]	–	–	Ent. B Max Activity (%) (Table 9): +++ (+++ is >600%); EC50 (Table 9): < 1000 nM
COC(=O)N(C)CCN1C(=O)c2cccc(c2)S(=O)(=O)Nc2nc(cc(-c3c(C)cccc3C)n2)OC[C@H]1CC(C)C [Compound 410]	–	–	Ent. B Max Activity (Table 7): +++ (+++ is >60%); EC50 [2]: < 1000 nM
Cc1cccc(C)c1-c1cc2nc(n1)NS(=O)(=O)c1cccc(c1)C(=O)N(C[C@H]1C[C@@H](C(C)(C)O)C1)[C@H](CC(C)(C)C)CO2 [Compound 335]	+++ (+++ is >60%)	< 1000 nM	–
Cc1cccc(C)c1-c1cc2nc(n1)NS(=O)(=O)c1cccc(c1)C(=O)N(Cc1ccc(NC(=O)OC(C)C)cc1)[C@H](CC(C)(C)C)CO2 [Compound 508]	+++ (+++ is >60%)	< 1000 nM	–
Cc1cccc(C)c1-c1cc2nc(n1)NS(=O)(=O)c1cccc(c1)C(=O)N(Cc1ncccc1C(C)(C)O)[C@H](CC(C)(C)C)CO2 [Compound 385]	–	–	Ent. B Max Activity (%) (Table 9): +++ (+++ is >600%); EC50 (Table 9): < 1000 nM
Cc1cccc(C)c1-c1cc2nc(n1)NS(=O)(=O)c1cccc(c1)C(=O)N(CCCCC(C)(C)O)[C@H](CC(C)(C)C)CO2 [Compound 107, (11R)-6-(2,6-Dimethylphenyl)-11-(2,2-dimethylpropyl)-12-(5-hydroxy-5-methyl-hexyl)-2,2-dioxo-9-oxa-2λ^6-thia-3,5,12,19-tetrazatricyclo[12.3.1.14,8]nonadeca-1(18),4(19),5,7,14,16-hexaen-13-one]	+++ (+++ is >60%)	< 1000 nM	–
Cc1cccc(C)c1-c1cc2nc(n1)NS(=O)(=O)c1cccc(c1)C(=O)N(CCC(C)(C)C#N)[C@H](CC(C)C)CO2 [Compound 1105]	–	–	Ent. B Max Activity (Table 7): +++ (+++ is >60%); EC50 [2]: < 1000 nM
Cc1cccc(C)c1-c1cc2nc(n1)NS(=O)(=O)c1cccc(c1)C(=O)N(Cc1ccnc(N)c1)[C@H](CC(C)(C)C)CO2 [Compound 61, (11R)-12-[(2-Amino-4-pyridyl)methyl]-6-(2,6-dimethylphenyl)-11-(2,2-dimethylpropyl)-2,2-dioxo-9-oxa-2λ^6-thia-3,5,12,19-tetrazatricyclo[12.3.1.14,8]nonadeca-1(18),4(19),5,7,14,16-hexaen-13-one]	–	–	Ent. B Max Activity (%) (Table 9): +++ (+++ is >600%); EC50 (Table 9): < 1000 nM
Cc1cccc(C)c1-c1cc2nc(n1)NS(=O)(=O)c1cccc(c1)C(=O)N(CCN(C)C(=O)OC(C)C)[C@H](CC(C)C)CO2 [Compound 91, Isopropyl N-[2-[(11R)-6-(2,6-dimethylphenyl)-11-isobutyl-2,2,13-trioxo-9-oxa-2λ^6-thia-3,5,12,19-tetrazatricyclo[12.3.1.14,8]nonadeca-1(18),4(19),5,7,14,16-hexaen-12-yl]ethyl]-N-methyl-carbamate]	–	–	Ent. B Max Activity (Table 7): +++ (+++ is >60%); EC50 [2]: < 1000 nM
Cc1cccc(C)c1-c1cc2nc(n1)NS(=O)(=O)c1cccc(c1)C(=O)N(Cc1ccc(C(C)(C)O)cc1)[C@H](CC(C)(C)O)CO2 [Compound 663]	+++ (+++ is >60%)	< 1000 nM	–
Cc1cccc(C)c1-c1cc2nc(n1)NS(=O)(=O)c1cccc(c1)C(=O)N(CCC1CCOCC1)[C@@H]1CN(C3CC4(CCCC4)C3)C[C@H]1O2 [Compound 1191, (3R,7R)-19-(2,6-Dimethylphenyl)-8-[2-(oxan-4-yl)ethyl]-5-{spiro[3.4]octan-2-yl}-2-oxa-15λ^6-thia-5,8,16,18,21-pentaazatetracyclo[15.3.1.110,14.03,7]docosa-1(20),10(22),11,13,17(21),18-hexaene-9,15,15-trione]	–	–	Ent. B Max Activity (%) (Table 9): +++ (+++ is >600%); EC50 (Table 9): < 1000 nM
Cc1cccc(C)c1-c1cc2nc(n1)NS(=O)(=O)c1cccc(c1)C(=O)N(Cc1ccc(-c3cn[nH]c3)cc1)[C@H](CC(C)(C)C)CO2 [Compound 317]	–	–	Ent. B Max Activity (%) (Table 9): +++ (+++ is >600%); EC50 (Table 9): < 1000 nM
